Patent US8846620B2, “Resorption enhancers as additives to improve the oral formulation of non-anticoagulant sulfated polysaccharides” (Baxter International Inc., priority 2011, dated 2014)

Legend:
CaCo-2 cell model = CaCo-2 cell model bioavailability / resorption screening of NASPs with permeation enhancers; assay type: in vitro ADME, human; settings: for Average Percent Resorption at 8 hours: Table 5; for basolateral concentrations in the presence of a gastrointestinal epithelial barrier permeation enhancer: compared with absence of enhancer, figures
Protocol: (§1) The bioavailability of NASPs in combination with gastrointestinal epithelial barrier permeation enhancers of interest were studied using the CaCo-2 cell model screening. This method utilizes a human colon carcinoma cell line that expresses a wide range of transporter proteins on its cell membranes. Cell layers are grown on a membrane surface that separates two compartments (24-well plate). An example of the experimental setup for these experiments is illustrated in FIG. 1. Selected NASP and gastrointestinal epithelial barrier permeation enhancer samples were dissolved in RPMI cell medium at a concentration of 1 mg/mL and applied onto the cells in the apical compartment. Cells were incubated at 37° C. in 5% CO2. Medium samples were removed from the basolateral and apical compartment at different time points. The condition of the cell layer was monitored by measurement of the transepithelial electrical resistance (TEER). Samples were analyzed by thrombin generation assay (CAT). NASP concentration was calculated based on activity from CAT assay. Experimental details of thrombin generation assays and other blood coagulation assays are described in U.S. patent application Ser. No. 11/140,504, filed on May 27, 2005, now U.S. Pat. No. 7,767,654, and U.S. patent application Ser. No. 13/006,396, filed on Jan. 13, 2011, the disclosures of which is herein incorporated by reference.
All NASP and gastrointestinal epithelial barrier permeation enhancer samples were diluted in such a way that the sample concentration was in the range of increasing procoagulant activity. Based on the initial load concentration values, apical and basolateral concentrations were determined at 2 hour increments (e.g., 2 hours, 4 hours, 6 hours, 8 hours, including 24 hours). Based on the determined basolateral concentrations, the percent resorption was determined for each combination of compounds (i.e., NASP and gastrointestinal epithelial barrier permeation enhancers).
FIGS. 4-8 illustrate resorption of some natural NASPs of interest in Caco-2 cell models as determined by TGA and liquid chromatography/mass spectrometry in combination with different gastrointestinal epithelial barrier permeation enhancers. FIGS. 9 and 10 illustrate resorption of some synthetic NASPs of interest in Caco-2 cell models as determined by TGA and liquid chromatography/mass spectrometry in combination with different gastrointestinal epithelial barrier permeation enhancers.

CaCo-2 cell layer = experiment: Condition of the cell layer by transepithelial electrical resistance (TEER) in CaCo-2 screening; assay type: cell-based, human
Protocol: as §1, with “reference. […]” for “reference.”

[1] = Bromelain/Chitosan 0.5 mg/mL: 3%
[2] = in the presence of bromelain at 8 hours
[3] = in the presence of deoxycholate at 8 hours

Average Percent Resorption at 8 hours (CaCo-2 cell model; Bromelain 0.5 mg/mL)	Average Percent Resorption at 8 hours (CaCo-2 cell model; [1])	Average Percent Resorption at 8 hours (CaCo-2 cell model; Chitosan 3%)	Average Percent Resorption at 8 hours (CaCo-2 cell model; Deoxycholate 0.08%)	Average Percent Resorption at 8 hours (CaCo-2 cell model; No enhancer)	Average Percent Resorption at 8 hours (CaCo-2 cell model; Deoxycholate 0.06%)	Average Percent Resorption at 8 hours (CaCo-2 cell model; Sodium Caprate 12 mM)	basolateral concentrations in the presence of a gastrointestinal epithelial barrier permeation enhancer (CaCo-2 cell model)	resorption in Caco-2 cell models (CaCo-2 cell model; [2])	resorption in Caco-2 cell models (CaCo-2 cell model; in the presence of chitosan)	resorption in Caco-2 cell models (CaCo-2 cell model; [3])	resorption in Caco-2 cell models (CaCo-2 cell model; in the presence of sodium caprate)	transepithelial electrical resistance after removal of the permeation enhancer and the NASP (CaCo-2 cell layer; after removal of enhancer and maltopentaose)	resorption in Caco-2 cell models (CaCo-2 cell model; in the presence of sodium caprate at 8 hours)	Substance	transepithelial electrical resistance after treatment with the permeation enhancer alone (CaCo-2 cell layer; enhancer alone, no NASP)
48.6%	158.8%	35.7%	113.2%	0%	67.4%	13.1%	increased	increased substantially	strong increased resorption	increased substantially	strong increased resorption	increased	–	Sulfated Maltopentose	–
24.7%	59.8%	15.6%	36.1%	0%	20.6%	19.3%	increased	increased substantially	–	increased substantially	–	–	increased substantially	Sulfated β-cyclodextrin	–

Second part, the substance before the results:

Substance	Average Percent Resorption at 8 hours (CaCo-2 cell model; Bromelain 0.5 mg/mL)	Average Percent Resorption at 8 hours (CaCo-2 cell model; [1])	Average Percent Resorption at 8 hours (CaCo-2 cell model; Chitosan 3%)	Average Percent Resorption at 8 hours (CaCo-2 cell model; Deoxycholate 0.08%)	Average Percent Resorption at 8 hours (CaCo-2 cell model; No enhancer)	Average Percent Resorption at 8 hours (CaCo-2 cell model; Deoxycholate 0.06%)	Average Percent Resorption at 8 hours (CaCo-2 cell model; Sodium Caprate 12 mM)	basolateral concentrations in the presence of a gastrointestinal epithelial barrier permeation enhancer (CaCo-2 cell model)	resorption in Caco-2 cell models (CaCo-2 cell model; [2])	resorption in Caco-2 cell models (CaCo-2 cell model; in the presence of chitosan)	resorption in Caco-2 cell models (CaCo-2 cell model; [3])	resorption in Caco-2 cell models (CaCo-2 cell model; in the presence of sodium caprate)	transepithelial electrical resistance after removal of the permeation enhancer and the NASP (CaCo-2 cell layer; after removal of enhancer and maltopentaose)	resorption in Caco-2 cell models (CaCo-2 cell model; in the presence of sodium caprate at 8 hours)	transepithelial electrical resistance after treatment with the permeation enhancer alone (CaCo-2 cell layer; enhancer alone, no NASP)
Sulfated 6-Carboxyicodextrin [Sulfated 6-Carboxyicodextrin 14 kD]	17.7%	44.5%	5.4%	27.2%	3.8%	–	–	–	–	–	–	–	–	–	–
Sulfated 6-Carboxyicodextrin [Sulfated 6-Carboxyicodextrin 24 kD]	10.0%	36.8%	2.6%	14.7%	1.6%	4.9%	–	–	–	–	–	–	–	–	–
bromelain	–	–	–	–	–	–	–	–	–	–	–	–	–	–	recovery of the transepithelial electrical resistance
